The record followed here is PMC12884720, “Gabpα‐Pparγ Complex Determines Glycolytic Capacity and Lactic Acid Homeostasis in Brown Fat” (Advanced Science, 2025).

Assay [1] has as its system Gabpα‐Pparγ complex. Description: SPR competitive binding assay, GPCBi on Gabpα and Pparγ interaction. The conditions noted are these: equal concentration of Gabpα and different concentrations of GPCBi over immobilized Pparγ (Figure 4b). As to the method:
SPR analysis was performed using a Biacore T200 system (Cytiva) equipped with a Series S Sensor Chip CM5. Briefly, the ligand Pparγ protein was immobilized to the CM5 Chip via covalent bonds to the amino acid residues in immobilization buffer. Subsequently, different concentrations of Gabpα were diluted in the analyte buffer and were injected into the flowing channel to allow interaction between Pparγ and Gabpα. For a competitive binding assay, an equal concentration of Gabpα and different concentrations of GPCBi were injected into the flowing channel to examine the effect of the interaction between Pparγ and Gabpα. The interacting phase included 120 s of the association phase and 200 s of the dissociation phase. The data were analyzed in a Biacore T200 Evaluation Software (Cytiva).

The subject of assay [2] is BAT from wild‐type mice. Description: Gene expression (mRNA, protein) in BAT of treated mice. It counts as in vivo, wild‐type C57BL/6J mice. As for the experimental part:
Reverse transcription of cDNA was completed via the use of 1 µg of RNA with HiScript II Q RT SuperMix for real‐time quantitative PCR (qPCR) (Vazyme Biotech, Nanjing, China, Cat# R222) according to the provided protocols. qPCR was performed with a real‐time PCR system on a QuantStudio1 (Applied Biosystems) using Taq Pro Universal SYBR qPCR Master Mix (Vazyme Biotech., Nanjing, China, Cat# Q712‐02). Relative transcript levels were calculated via the comparative C T method; 36b4 was used as the internal control for cells, whereas Hprt was used as the internal control for tissues. The primer sequences are listed in Table S1 (Supporting Information). The mRNAs from the BAT of control and Gabpα ^Ucp1 KO mice were extracted and subjected to commercial RNA‐seq (BGI Genomics Co., Ltd.) for further DEG and KEGG pathway enrichment analysis. In detail, RNA quality was examined with Fragment (Agilent). High‐quality RNA (RIN > 8.0) was used to library construction. RNA‐seq was performed at BGI Genomics (China) using the Illumina NovaSeq 6000 platform. Clean reads were aligned to the mouse reference genome (GRCm39) using Bowtie2, and transcript quantification was performed with RSEM. […] The RNA‐seq data generated in this study have been deposited in the National Center for Biotechnology Information Sequence Read Archive database under accession code PRJNA1358056.
Cells and tissues were lysed in RIPA lysis buffer (Beyotime, Shanghai, China, Cat# P0013B) containing a protease inhibitor cocktail (MedChem Express, NJ, USA, Cat# HY‐K0010) according to the manufacturer's protocol. Equal amounts of protein were separated on SDS‒PAGE gels and transferred to PVDF membranes (Millipore). The PVDF membranes were blocked in 5% skim milk for 1 h at room temperature and then incubated with primary antibody overnight at 4 °C. The membranes were washed three times with TBST and then incubated with HRP‐conjugated secondary antibodies for 1 h at room temperature. After washing three times, the Western blots were imaged via an enhanced chemiluminescence system.

Assay [3] concerns Eno1 promoter. Description: Luciferase reporter assay, Eno1-Luc activated by Gabpα and Pparγ/Rxrα. The format is cell-based, human. The conditions noted are these: HEK293T cells, GPCBi 3 µM, n = 3 (Figure 4g). As to the method:
HEK293T cells were transfected with 100 ng of Pparγ and 100 ng of Rxrα or empty vector together with 100 ng of Gabpα plasmid or the C‐terminal truncation mutants and 200 ng of Eno1 luciferase reporter plasmid in 24‐well plates via Lipofectamine reagent (Yeasen, Shanghai, China, Cat# 40802ES03). For the experiments with the peptides GPCBi or T0070907, the additional peptides GPCBi (3 µM) or T0070907 (10 µM) were added to the HEK293T cells one day after the plasmid complex was transfected. After 48 h of transfection, luciferase activity was measured via the Dual‐Luciferase Reporter Assay System (Vazyme Biotech., Nanjing, China; Cat# DL101‐01). Firefly luciferase reporter gene measurements were normalized to Renilla luciferase activity.
(In general: In a reporter assay the amount or activity of a reporter protein is the signal.)

Assay [4] relates to differentiated iBAT‐SVF cells. Description: Lactate levels in differentiated iBAT-SVF cells. It counts as cell-based, C57BL/6 mice. The conditions noted are these: GPCBi 5 µM. As to the method: Interscapular BAT‐SVF cells were obtained from eight‐week‐old male C57BL/6 mice. Briefly, BAT was excised, washed in PBS, minced, and digested at 37 °C for 40 min in Hanks solution containing type II collagenase (Sigma, Cat# C‐6885) and 4% bovine serum albumin (BSA). The tissue homogenates were filtered through a 70 µm cell strainer and centrifuged at 1000 rpm for 5 min. The cell pellet was resuspended in DMEM supplemented with 10% FBS (Sigma–Aldrich) and 1% penicillin/streptomycin (P/S) at 37 °C with 5% CO2. The next day, BAT‐SVF cells were immortalized with the SV40 large T antigen according to a published protocol.^[ [32] ^] For iBAT‐SVF cell differentiation, confluent SVF cells were induced to differentiate with medium containing 0.5 mM isobutylmethylxanthine (Sigma, Cat# I‐5879), 125 µM indomethacin (Sigma, Cat# I‐7378), 2 µg mL^−1 dexamethasone (Sigma, Cat# D‐1756), 5 µg mL^−1 insulin (Solarbio, Cat# I‐8040), 1 nM triiodo‐L‐thyronine (Sigma, Cat# T‐2877), and 1 µM rosiglitazone (Cayman, Cat# 71740‐100). After 48 h, the induction medium was replaced with a maintenance cocktail (5 µg mL^−1 insulin, 1 nM triiodo‐L‐thyronine, and 1 µM rosiglitazone) until 6 to 8 days after the induction of differentiation.
Brown fat was homogenized with lysis buffer, ultrasonographically treated on ice at 300 W (on for 3 s, off for 7 s) for 2 min, and then centrifuged at 4 °C at 12 000 × g for 10 min. […] All protocols were followed in accordance with the manufacturer's guidelines.

Residues, ends and D or L forms follow the SMILES beside them. *: point of attachment. FITC = O=C1OC2(c3ccc(O)cc3Oc3cc(O)ccc32)c2ccc(NC(=S)*)cc21

With `CC[C@H](C)[C@H](NC(=O)[C@H](CCCNC(=N)N)NC(=O)[C@H](CS)NC(=O)[C@H](CC(N)=O)NC(=O)[C@H](CC(C)C)NC(=O)[C@H](CC(=O)O)NC(=O)[C@H](CS)NC(=O)[C@H](CCCNC(=N)N)NC(=O)[C@H](CC(=O)O)NC(=O)[C@H](Cc1ccc(O)cc1)NC(=O)[C@@H](NC(=O)[C@H](CC(C)C)NC(=O)[C@H](CCCCN)NC(=O)[C@H](CC(C)C)NC(=O)[C@H](CCCNC(=N)N)NC(=O)[C@@H](NC(=O)[C@@H](NC(=O)[C@H](CCCNC(=N)N)NC(=O)[C@H](CCCNC(=N)N)NC(=O)[C@H](CCCNC(=N)N)NC(=O)[C@H](CCCNC(=N)N)NC(=O)[C@H](CCCNC(=N)N)NC(=O)[C@H](CCC(N)=O)NC(=O)[C@H](CCCNC(=N)N)NC(=O)[C@H](CCCNC(=N)N)NC(=O)[C@H](CCCCN)NC(=O)[C@H](CCCCN)NC(=O)[C@H](CCCNC(=N)N)NC(=O)CNC(=O)[C@H](Cc1ccc(O)cc1)NC(=S)Nc1ccc2c(c1)C(=O)OC21c2ccc(O)cc2Oc2cc(O)ccc21)[C@@H](C)O)[C@@H](C)CC)[C@@H](C)CC)C(=O)N[C@@H](Cc1c[nH]cn1)C(=O)N[C@@H](CCCCN)C(=O)N[C@@H](CCCCN)C(=O)N[C@@H](CO)C(=O)N[C@@H](CCCNC(=N)N)C(=O)N[C@@H](CC(N)=O)C(=O)N[C@@H](CCCCN)C(=O)O` [GPCBi] ({FITC}-YGRKKRRQRRRRRTIRLKLIYDRCDLNCRIHKKSRNK-OH; N-terminus and C-terminus assumed), the “effect on Gabpα affinity toward Pparγ” value in assay [1] is “dose‐dependently attenuated this interaction”. Besides, the “Ldh and Ucp1 expression in BAT” value in assay [2] (GPCBi 5.5 mg kg^−1 in BAT, 23 °C for 7 days then 10 °C for 2 days, mRNA n = 4 (Figure 5e,f)) is “effectively downregulated”. Further, in assay [2] (GPCBi 5.5 mg kg^−1 orthotopically into BAT, 7 days, control n = 3, GPCBi n = 4 (Figure 4l,m)), the “gene expressions of Eno1, Pkm2, and Ucp1 in BAT” value is “decreased”. Besides, the “regulatory gene expression of the futile lipid cycle, BAT” value in assay [2] (GPCBi in BAT, 23 °C for 7 days to 10 °C for 2 days, control n = 4, GPCBi n = 3 (Figure S5a)) is on record as “substantially impaired”. Moreover, the “Gabpα‐Pparγ complex‐mediated activation of the Eno1 promoter” value in assay [3] is “suppressed”. In addition, the “intracellular lactate levels in brown adipocytes” value in assay [4] (first 2 days of adipogenic differentiation (Figure 5l)) is reported as “decreased”. Also, the “lactate level in GPCBi‐treated brown adipocytes” value in assay [4] (first 2 days of adipogenic differentiation, versus scramble peptide, without Enoblock (Figure 5o)) is “reduced”.
